Paper PMC12490008 (Environmental Science & Technology, 2025)
*1 amine or outer side, *2 acyl side, *3 side chain or, on linkers, in order; H or OH if unused. Where a SMILES comes first, the peptide text is derived from it. Bridges are numbered along the chain shown (N, C = ends). [ ]: non-standard residue; d: D form. Adda = CO[C@@H](Cc1ccccc1)[C@@H](C)/C=C(C)/C=C/[C@H](N[*:1])[C@H](C)C(=O)[*:2]; dAsp(3S-Me) = C[C@H](C(=O)[*:3])[C@@H](N[*:1])C(=O)[*:2]; d(γGlu) = O=C(O)[C@@H](CCC(=O)[*:2])N[*:1]; hTyr = N[C@@H](CCc1ccc(O)cc1)C(=O)O; NMeA = CN[C@@H](C)C(=O)O; Abu = CC[C@H](N)C(=O)O; NMeDha = C=C(NC)C(=O)O; CO = O=C([*:1])[*:2]

Experiments:
[1] = tested on: River Chriesbach biofilm suspension
[2] = tested on: River Glatt biofilm suspension
[3] = tested on: River Chriesbach biofilm suspension (100%, 10%, 1%)
[4] = tested on: lake Greifensee water and three rivers
[5] = tested on: River Mönschaltorfer Aa biofilm suspension
[6] = tested on: River Chriesbach biofilm suspension (100%)
[7] = tested on: River Chriesbach biofilm suspensions
[8] = tested on: River Chriesbach river water

Molecule	biodegradability in biofilm suspensions (in words) [7]	removal within 3 days [1]	1d removal, 1% biofilm [3] [%]	1d removal, 10% biofilm [3] [%]	1d removal, 100% biofilm [3] [%]	Half-lives (h), 1% biofilm [3]	Half-lives (h), 10% biofilm [3]	Half-lives (h), 100% biofilm [3]	1d removal, River water [8] [%]	Half-lives (h), River water [8]	1.3d removal, 2% metabolite [6] [%]	1.3d removal, 10% metabolite [6] [%]	1.3d removal, 100% metabolite [6] [%]	Half-lives (h), 100% metabolite [6]	Lag-time (h), 100% biofilm [3] [h]	Lag-time (h), River water [8]	Lag-time (h), 100% metabolite [6] [h]	Half-lives (h), 2% metabolite [6] [h]	Half-lives (h), 10% metabolite [6] [h]	Lag-time (h), 2% metabolite [6] [h]	further results
O=C(O)c1ccccc1 [benzoic acid, reference compound]																					removal of benzoic acid after 8 h [1]: 72%; removal of benzoic acid after 24 h [1]: 100%; removal of benzoic acid after 8 h [2]: 3%; removal of benzoic acid after 24 h [2]: 75%; removal of benzoic acid after 1 day, 1% density [3]: 62%; removal of benzoic acid after 1 day, 10% density [3]: 77%; removal of benzoic acid after 1 day, 100% density [3]: 97%; biotransformation during incubation in surface waters [4]: degraded within hours; removal of benzoic acid after 8 h [5]: 41%; removal of benzoic acid after 24 h [5]: 84%; removal of benzoic acid within 4 h [6]: 94-100%
Anabaenopeptin D	did not show detectable biotransformation																				
C=C1C(=O)N[C@H](C)C(=O)N[C@@H](CC(C)C)C(=O)N[C@@H](C(=O)O)[C@H](C)C(=O)N[C@@H](CC)C(=O)N[C@@H](/C=C/C(C)=C/[C@H](C)[C@H](Cc2ccccc2)OC)[C@H](C)C(=O)N[C@@H](C(=O)O)CCC(=O)N1C [MC-LAba] ([Abu][Adda][d(γGlu)][NMeDha][dA]L[dAsp(3S-Me)]-OH; lactam N-7)	remained rather stable	< 13%	-6	13	-8	n.d.(decay)	n.d.(decay)	n.d.(decay)	-11	n.d.(decay)	-7	-2	8	n.d. (decay)							
[D-Asp3]MC‐(H4)YR [[D-Asp3]MC-(H4)YR]	biodegradable	86%	6	31	94			7.6 h	-24		100	100	94	11.0 h	5.8	168.0 h	1.1				Lag-time (h), 1% biofilm [3]: 108.8 h; Lag-time (h), 10% biofilm [3]: 56.4 h; half-life, 1% biofilm [3]: 120 h; half-life, 10% biofilm [3]: 62.4 h; degradation in ambient river water [8]: detectable degradation; half-life, river water [8]: 170 h
Anabaenopeptin 871	did not show detectable biotransformation																				
C=C1C(=O)N[C@H](C)C(=O)N[C@@H](CCc2ccc(O)cc2)C(=O)N[C@@H](C(=O)O)[C@H](C)C(=O)N[C@@H](CCCNC(=N)N)C(=O)N[C@@H](/C=C/C(C)=C/[C@H](C)[C@H](Cc2ccccc2)OC)[C@H](C)C(=O)N[C@@H](C(=O)O)CCC(=O)N1C [MC-HtyR] (R[Adda][d(γGlu)][NMeDha][dA][hTyr][dAsp(3S-Me)]-OH; lactam N-7)	biodegradable	31%	-13	19	17	n.d.(decay)	n.d.(decay)	51.8 h	-36	n.d.(decay)	33	14	9	70.4 h							
Cyanopeptolin B		more than 50%	16	49	100				2		100	100	96	7.7 h			0.0				
Cyanopeptolin 963A		32-35%	-26	5	56				-81		100	98	64	29.6 h			29.5				
Cyanopeptolin 1020				31	91	112.1 h	64.2 h	9.0 h		129.5 h	100	100	94	9.9 h	6.7		0.4	6.2	8.3	5.7	detectability at day 5 [1]: not detectable anymore; lag time (shoulder-log fitting) [1]: 1.6 days; lag time, 1% biofilm [3]: 4.1 days; lag time, 10% biofilm [3]: 2.5 days; degradation in ambient river water [8]: detectable degradation; lag time, ambient river water [8]: 5.4 days; Lag-time (h), 10% metabolite [6]: 8.3 h
Anabaenopeptin B			-11	23	85		111.9 h	10.4 h	-23	n.d.(decay)	100	99	62	30.0 h	8.5	n.d.(decay)	29.9	6.2	11.2	5.3	detectability at day 5 [1]: not detectable anymore; lag time (shoulder-log fitting) [1]: 2.3 days; Lag-time (h), 10% biofilm [3]: 111.7 h; Lag-time (h), 10% metabolite [6]: 10.3 h; initial removal at 1.3 days at decreased initial metabolite concentrations [6]: ~100%
Oscillamide Y		32-35%	1	28	86	191.5 h	101.7 h	11.1 h	-24	n.d.(decay)	100	98	51	33.9 h	9.4	n.d.(decay)	33.8	7.1	12.8	6.8	Lag-time (h), 1% biofilm [3]: 0.0 h; Lag-time (h), 10% biofilm [3]: 99.6 h; expected river water half-lives [8]: 7.2 to 8.0 days; Lag-time (h), 10% metabolite [6]: 11.7 h
CC[C@H](C)[C@@H]1NC(=O)[C@H](NC(=O)N[C@@H](Cc2c[nH]c3ccccc23)C(=O)O)CCCCNC(=O)[C@H](Cc2ccccc2)NC(=O)[C@H](C)N(C)C(=O)[C@H](CCc2ccc(O)cc2)NC1=O [Ferintoic acid B] ({Trp-CO}-[dK]I[hTyr][NMeA]F; lactam 1-C)	did not show detectable biotransformation																				
Cyanopeptolin D		more than 50%	4	26	77			19.1 h	11	n.d.(decay)	100	100	76	27.2 h	18.7	n.d.(decay)	27.2	7.4	11.1	7.3	Lag-time (h), 10% metabolite [6]: 10.5 h
